Experimental data as given in patent US20260256792A1, “TREATMENT OF CHRONIC SPONTANEOUS URTICARIA BY ADMINISTERING (R)-2-[3-[4-AMINO-3-(2-FLUORO-4-PHENOXY-PHENYL)PYRAZOLO[3,4-D]PYRIMIDIN-1-YL]PIPERIDINE-1-CARBONYL]-4-METHYL-4-[4-(OXETAN-3-YL)PIPERAZIN-1-YL]PENT-2-ENENITRILE” (priority 2023, published 2026).

Tested on: angioedema in CSU patients
Test: Phase 2 CSU study: angioedema activity score over 7 days (AAS7)
Format: in vivo, human
Design: AAS7, Median / AAS7 Change from baseline, Median: scale not given here
Text: The study comprises a 12 week, randomized, double-blind, placebo-controlled, multi-center, dose-ranging efficacy and safety phase, followed by a 40 week open label extension (OLE) phase (see FIG. 1). The study consists of three phases and an optional OLE phase. […] The weekly angioedema activity score (AAS7) was proposed as a tertiary endpoint. […] Patients were to complete the AAS using the e-diary. The e-diary was to be used once daily on the same time of each day recording of participant's answers to the angioedema activity score over 7 days (AAS7) questionnaire.

[1] = Patients with Prior Omalizumab Use, 400 mg TID, Week 1
[2] = Patients with Prior Omalizumab Use, 400 mg TID, Week 2
[3] = Patients with Prior Omalizumab Use, 400 mg TID, Week 3
[4] = Patients with Prior Omalizumab Use, 400 mg TID, Week 4
[5] = Patients with Prior Omalizumab Use, 400 mg TID, Week 5
[6] = Patients with Prior Omalizumab Use, 400 mg TID, Week 6
[7] = Patients with Prior Omalizumab Use, 400 mg TID, Week 7
[8] = Patients with Prior Omalizumab Use, 400 mg TID, Week 8
[9] = Week 8, 400 mg BID, Incomplete Responders with angioedema at baseline, double-blind period
[10] = Week 8, 400 mg QPM, Incomplete Responders with angioedema at baseline, double-blind period
[11] = Week 8, 400 mg TID, Incomplete Responders with angioedema at baseline, double-blind period
[12] = Week 9, 400 mg BID, Incomplete Responders with angioedema at baseline, double-blind period
[13] = Week 9, 400 mg QPM, Incomplete Responders with angioedema at baseline, double-blind period
[14] = Week 9, 400 mg TID, Incomplete Responders with angioedema at baseline, double-blind period
[15] = Week 10, 400 mg BID, Incomplete Responders with angioedema at baseline, double-blind period
[16] = Week 10, 400 mg QPM, Incomplete Responders with angioedema at baseline, double-blind period
[17] = Week 10, 400 mg TID, Incomplete Responders with angioedema at baseline, double-blind period
[18] = Week 11, 400 mg BID, Incomplete Responders with angioedema at baseline, double-blind period
[19] = Week 11, 400 mg QPM, Incomplete Responders with angioedema at baseline, double-blind period
[20] = Week 11, 400 mg TID, Incomplete Responders with angioedema at baseline, double-blind period
[21] = Week 12, 400 mg BID, Incomplete Responders with angioedema at baseline, double-blind period
[22] = Week 12, 400 mg QPM, Incomplete Responders with angioedema at baseline, double-blind period
[23] = Week 12, 400 mg TID, Incomplete Responders with angioedema at baseline, double-blind period

Structure (SMILES): CC(C)(C=C(C#N)C(=O)N1CCC[C@@H](n2nc(-c3ccc(Oc4ccccc4)cc3F)c3c(N)ncnc32)C1)N1CCN(C2COC2)CC1 [rilzabrutinib, (R)-2-[3-[4-amino-3-(2-fluoro-4-phenoxy-phenyl)pyrazolo[3,4-d]pyrimidin-1-yl]piperidine-1-carbonyl]-4-methyl-4-[4-(oxetan-3-yl)piperazin-1-yl]pent-2-enenitrile]
- AAS7 Change from baseline, Median (Patients with Prior Omalizumab Use, 400 mg QPM, Week 8): −50.00
- AAS7, Mean (SD) [1]: 6.33 (7.77)
- AAS7, Median [1]: 4.00
- AAS7 Change from baseline, Median [1]: −25.83
- AAS7 Percent change from baseline, Mean (SD) [1]: −79.91 (18.61) %
- AAS7 Percent change from baseline, Median [1]: −76.47%
- AAS7, Mean (SD) [2]: 4.00 (6.93)
- AAS7, Median [2]: 0.00
- AAS7 Change from baseline, Mean (SD) [2]: −27.28 (19.44)
- AAS7 Change from baseline, Median [2]: −36.00
- AAS7 Percent change from baseline, Mean (SD) [2]: −76.47 (40.75) %
- AAS7 Percent change from baseline, Median [2]: −100.00%
- AAS7, Mean (SD) [3]: 7.00 (7.00)
- AAS7, Median [3]: 7.00
- AAS7 Change from baseline, Mean (SD) [3]: −24.28 (18.46)
- AAS7 Change from baseline, Median [3]: −33.83
- AAS7 Percent change from baseline, Mean (SD) [3]: −66.83 (43.45) %
- AAS7 Percent change from baseline, Median [3]: −82.86%
- AAS7, Mean (SD) [4]: 7.11 (6.30)
- AAS7, Median [4]: 9.33
- AAS7 Change from baseline, Mean (SD) [4]: −24.17 (16.75)
- AAS7 Change from baseline, Median [4]: −31.50
- AAS7 Percent change from baseline, Mean (SD) [4]: −68.85 (36.02) %
- AAS7 Percent change from baseline, Median [4]: −77.14%
- AAS7, Median [5]: 19.83
- AAS7 Change from baseline, Mean (SD) [5]: −18.00 (19.67)
- AAS7 Change from baseline, Median [5]: −21.00
- AAS7 Percent change from baseline, Mean (SD) [5]: −44.59 (59.12) %
- AAS7 Percent change from baseline, Median [5]: −51.43%
- AAS7, Mean (SD) [6]: 7.00 (8.19)
- AAS7, Median [6]: 5.00
- AAS7 Change from baseline, Mean (SD) [6]: −24.28 (20.16)
- AAS7 Change from baseline, Median [6]: −35.83
- AAS7 Percent change from baseline, Mean (SD) [6]: −64.55 (51.17) %
- AAS7 Percent change from baseline, Median [6]: −87.76%
- AAS7, Mean (SD) [7]: 9.72 (16.84)
- AAS7, Median [7]: 0.00
- AAS7 Change from baseline, Mean (SD) [7]: −21.56 (12.79)
- AAS7 Change from baseline, Median [7]: −17.00
- AAS7 Percent change from baseline, Mean (SD) [7]: −76.19 (41.24) %
- AAS7 Percent change from baseline, Median [7]: −100.00%
- AAS7, Mean (SD) [8]: 4.67 (7.23)
- AAS7, Median [8]: 1.00
- AAS7 Change from baseline, Mean (SD) [8]: −26.61 (19.68)
- AAS7 Change from baseline, Median [8]: −36.00
- AAS7 Percent change from baseline, Mean (SD) [9]: −100.00 (0.00)
- AAS7 Percent change from baseline, Median [9]: −100.00
- AAS7 Percent change from baseline, Mean (SD) [10]: −73.53 (NC)
- AAS7 Percent change from baseline, Median [10]: −73.53
- AAS7 Percent change from baseline, Mean (SD) [11]: −73.69 (43.46)
- AAS7 Percent change from baseline, Median [11]: −97.55
- AAS7, Mean (SD) [12]: 0.00 (0.00)
- AAS7, Median [12]: 0.00
- AAS7 Change from baseline, Mean (SD) [12]: −39.50 (3.54)
- AAS7 Change from baseline, Median [12]: −39.50
- AAS7 Percent change from baseline, Mean (SD) [12]: −100.00 (0.00)
- AAS7 Percent change from baseline, Median [12]: −100.00
- AAS7, Mean (SD) [13]: 10.00 (NC)
- AAS7 Change from baseline, Mean (SD) [13]: −58.00 (NC)
- AAS7 Change from baseline, Median [13]: −58.00
- AAS7 Percent change from baseline, Mean (SD) [13]: −85.29 (NC)
- AAS7 Percent change from baseline, Median [13]: −85.29
- AAS7, Mean (SD) [14]: 4.39 (6.62)
- AAS7, Median [14]: 1.17
- AAS7 Change from baseline, Mean (SD) [14]: −26.89 (19.04)
- AAS7 Change from baseline, Median [14]: −36.00
- AAS7 Percent change from baseline, Mean (SD) [14]: −75.52 (39.95)
- AAS7 Percent change from baseline, Median [14]: −97.14
- AAS7, Mean (SD) [15]: 0.00 (0.00)
- AAS7, Median [15]: 0.00
- AAS7 Change from baseline, Mean (SD) [15]: −39.50 (3.54)
- AAS7 Change from baseline, Median [15]: −39.50
- AAS7 Percent change from baseline, Mean (SD) [15]: −100.00 (0.00)
- AAS7 Percent change from baseline, Median [15]: −100.00
- AAS7, Mean (SD) [16]: 0.00 (NC)
- AAS7, Median [16]: 0.00
- AAS7 Change from baseline, Mean (SD) [16]: −68.00 (NC)
- AAS7 Change from baseline, Median [16]: −68.00
- AAS7 Percent change from baseline, Mean (SD) [16]: −100.00 (NC)
- AAS7 Percent change from baseline, Median [16]: −100.00
- AAS7, Mean (SD) [17]: 9.00 (10.15)
- AAS7, Median [17]: 7.00
- AAS7 Change from baseline, Mean (SD) [17]: −22.28 (21.92)
- AAS7 Change from baseline, Median [17]: −33.83
- AAS7 Percent change from baseline, Mean (SD) [17]: −55.07 (63.56)
- AAS7 Percent change from baseline, Median [17]: −82.86
- AAS7, Mean (SD) [18]: 0.00 (0.00)
- AAS7, Median [18]: 0.00
- AAS7 Change from baseline, Mean (SD) [18]: −39.50 (3.54)
- AAS7 Change from baseline, Median [18]: −39.50
- AAS7 Percent change from baseline, Mean (SD) [18]: −100.00 (0.00)
- AAS7 Percent change from baseline, Median [18]: −100.00
- AAS7, Mean (SD) [19]: 0.00 (NC)
- AAS7, Median [19]: 0.00
- AAS7 Change from baseline, Mean (SD) [19]: −68.00 (NC)
- AAS7 Change from baseline, Median [19]: −68.00
- AAS7 Percent change from baseline, Mean (SD) [19]: −100.00 (NC)
- AAS7 Percent change from baseline, Median [19]: −100.00
- AAS7, Median [20]: 0.00
- AAS7 Change from baseline, Mean (SD) [20]: −24.61 (24.03)
- AAS7 Change from baseline, Median [20]: −36.00
- AAS7 Percent change from baseline, Mean (SD) [20]: −60.78 (67.92)
- AAS7 Percent change from baseline, Median [20]: −100.00
- AAS7, Mean (SD) [21]: 0.00 (0.00)
- AAS7, Median [21]: 0.00
- AAS7 Change from baseline, Mean (SD) [21]: −39.50 (3.54)
- AAS7 Change from baseline, Median [21]: −39.50
- AAS7 Percent change from baseline, Mean (SD) [21]: −100.00 (0.00)
- AAS7 Percent change from baseline, Median [21]: −100.00
- AAS7, Mean (SD) [22]: 5.00 (NC)
- AAS7, Median [22]: 5.00
- AAS7 Change from baseline, Mean (SD) [22]: −63.00 (NC)
- AAS7 Change from baseline, Median [22]: −63.00
- AAS7 Percent change from baseline, Mean (SD) [22]: −92.65 (NC)
- AAS7 Percent change from baseline, Median [22]: −92.65
- AAS7 Change from baseline, Mean (SD) [23]: −16.50 (27.58)
- AAS7 Change from baseline, Median [23]: −16.50
- AAS7 Percent change from baseline, Mean (SD) [23]: −41.18 (83.19)
- AAS7 Percent change from baseline, Median [23]: −41.18
